According to patent publication US8338426B2, “Piperazinyl derivatives useful as modulators of the neuropeptide Y2 receptor” (Janssen Pharmaceutica NV, priority 2007, dated 2012):

Molecular target: T1, human Y2 receptor (Homo sapiens, UniProt P49146)
T1 construct: KAN-Ts endogenously expressing Y2 receptors were used; endogenous in cells; host or cells: KAN-Ts cells
T1 sequence (P49146 1-381): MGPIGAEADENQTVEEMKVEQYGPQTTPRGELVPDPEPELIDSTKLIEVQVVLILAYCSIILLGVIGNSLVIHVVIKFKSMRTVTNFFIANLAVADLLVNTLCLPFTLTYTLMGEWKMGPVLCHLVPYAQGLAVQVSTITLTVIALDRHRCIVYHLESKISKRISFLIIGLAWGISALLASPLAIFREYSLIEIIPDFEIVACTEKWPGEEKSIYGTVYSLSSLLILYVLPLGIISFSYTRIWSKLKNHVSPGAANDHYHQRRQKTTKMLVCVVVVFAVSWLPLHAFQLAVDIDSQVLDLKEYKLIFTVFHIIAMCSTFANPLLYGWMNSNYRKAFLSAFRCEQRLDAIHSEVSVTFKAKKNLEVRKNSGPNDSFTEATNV
Test: Neuropeptide Y2 radioligand binding assay, [125I]PYY, KAN-Ts cells
Settings: KANT-S cells, mean ± S.E.M., read-out: hY2 pKi (converted)
Method: Radioligand binding assays for the human and rat/mouse Y2 receptor were performed as described in Bonaventure, P., D. Nepomuceno, C. Mazur, B. Lord, D. A. Rudolph, J. A. Jablonowski, N. I. Carruthers and T. W. Lovenberg, J Pharmacol Exp Ther. 2004, 308, 1130.
KAN-Ts endogenously expressing Y2 receptors were used, for the rat and mouse Y2 receptor, membranes from rat or mouse hippocampus were prepared. Membranes were incubated with [^125I]PYY (80 pM) in the presence or absence of test compound for 1 h at rt. The reaction was stopped by filtration through GF/C filter plates pre-soaked in 0.3% polyethylenimine and subsequently washed with Tris-HCl, 50 mM, 5 mM EDTA buffer. Plates were dried for 1 h in a 55° C. oven, scintillation fluid was added and the radioactivity was counted in a Packard TopCount. Specific binding to the NPY receptor subtypes was determined by radioactivity that was bound in the presence of 1 μM NPY.
Apparent Ki values were calculated as K=IC50/(1+C/KD), where C is concentration of the radioligand and pKi=−log Ki. Data presented below are expressed as mean±S.E.M.

Q: For `CCN(CC)C(=O)C(c1ccccc1)N1CCN(c2ccc(NC(=O)c3ccccc3-c3cccnc3)cc2F)CC1` (racemic) [Cmpd (A), N-{4-[4-(Diethylcarbamoyl-phenyl-methyl)-piperazin-1-yl]-3-fluoro-phenyl}-2-pyridin-3-yl-benzamide], which Ki is on record?
A: The Ki was 5.5 nM.
